Source: paper PMC8236452, “Pharmacokinetics and safety of rucaparib in patients with advanced solid tumors and hepatic impairment” (Cancer Chemotherapy and Pharmacology, 2021)

Tests used:
[1] = Plasma pharmacokinetics after a single oral dose of rucaparib 600 mg in patients with advanced solid tumors, by hepatic function group; conditions: for AUC(0-inf) / AUC(0-t) / Cmax / Vd/F / half-life / Tmax: human, plasma, po, 600 mg, single oral rucaparib 600 mg; for AUC(0-inf): AUC0–inf; for AUC(0-t): AUC0–last; for Vd/F: Vz/F
Procedure: In Part 1, patients received a single oral dose of rucaparib 600 mg on day 1; PK samples were collected and safety monitored through day 7.
Sample collection, processing, and shipping were conducted according to standardized protocols shared across study sites. Plasma samples were collected for PK analysis at the predose assessment and at 1, 2, 3, 4, 8, 12, 24, 48, 72, 96, 120, and 144 h postdose. A predose urine sample was collected less than 12 h prior to study drug administration. Total urine was collected 0–12 h and 12–24 h postdose. Total (bound and unbound) concentrations of rucaparib and its metabolite M324 in plasma and urine samples were determined by Q Squared Solutions BioSciences (Ithaca, NY, USA) using validated liquid chromatography mass spectrometry/mass spectrometry methods. Stable deuterium-labeled analytes were used as internal standards. The assay calibration ranges for plasma samples were 5–10,000 ng/mL for rucaparib and 1–1000 ng/mL for M324 with lower limits of quantification (LLOQ) of 5.00 and 1.00 ng/mL, respectively. For urine samples, the calibration range was 500–50,000 ng/mL for both rucaparib and M324, with a LLOQ of 500 ng/mL for both analytes. The precision was within 9.3% CV, and the accuracy was within ± 6.2%.
PK parameters were estimated from the concentration–time profiles. Actual elapsed time after dosing was used to estimate plasma PK parameters based on noncompartmental methods using Phoenix® WinNonlin® version 8.1.0 (Certara USA, Inc., Princeton, NJ, USA). […] Exploratory PK parameters for M324 calculated based on plasma and urine concentration-time data were Cmax, AUC0–last, AUC0–inf, t1/2, tmax, Ae0–24, and CLR, as data allowed.
PK parameters were calculated by noncompartmental analysis, analyzed using descriptive statistics, and presented by hepatic functional status. Analysis of variance (ANOVA) was used to compare PK parameters (e.g., Cmax, AUC0–last, and AUC0–inf) between the normal hepatic function group and the moderate hepatic impairment group per NCI-ODWG criteria. PK values were log-transformed before analysis. Baseline covariates (e.g., creatinine clearance [CLcr], sex, age, BMI, and ECOG PS) were tested for any significant effect (P value < 0.05). Geometric least-squares means were used to calculate the ratios of the PK parameters in the hepatic impairment group to those in the control group, along with 90% confidence intervals (CIs). The Wilcoxon rank-sum test was used to compare tmax values between the two groups, and estimates of the median differences were determined, along with 90% CIs. In addition, the relationships between log-transformed PK parameters (AUC0–last, AUC0–inf, Cmax) for rucaparib and M324 and hepatic function parameters (bilirubin and aspartate aminotransferase [AST]) relevant to the classification of hepatic impairment according to NCI-ODWG were explored by a linear regression approach.

[2] = test system: patients; design: method as in PMID 28264872; conditions: dose escalation study; not reached; cited from earlier work
[3] = Median (min–max), Child–Pugh mild hepatic impairment
[4] = Median (min–max), Child–Pugh moderate hepatic impairment
[5] = Median (min–max), Child–Pugh severe hepatic impairment
[6] = Median (min–max), NCI-ODWG moderate hepatic impairment
[7] = Median (min–max), NCI-ODWG normal hepatic function
[8] = GM, Child–Pugh mild hepatic impairment
[9] = GM, Child–Pugh moderate hepatic impairment
[10] = GM, Child–Pugh severe hepatic impairment
[11] = GM, NCI-ODWG moderate hepatic impairment
[12] = GM, NCI-ODWG normal hepatic function
[13] = Mean (SD), Child–Pugh mild hepatic impairment
[14] = Mean (SD), Child–Pugh moderate hepatic impairment
[15] = Mean (SD), Child–Pugh severe hepatic impairment
[16] = Mean (SD), NCI-ODWG moderate hepatic impairment
[17] = Mean (SD), NCI-ODWG normal hepatic function
[18] = linear regression of log-transformed PK parameter on hepatic function parameter (NCI-ODWG)

CNCc1ccc(-c2[nH]c3cc(F)cc4c3c2CCNC4=O)cc1 [rucaparib]
AUC(0-inf) [1, 3]: 8780 ng·h/mL
AUC(0-inf) [1, 4]: 21100 ng·h/mL
AUC(0-inf) [1, 5]: 48300 ng·h/mL
AUC(0-inf) [1, 6]: 20600 ng·h/mL
AUC(0-inf) [1, 7]: 18100 ng·h/mL
AUC(0-t) [1, 8]: 8910 ng·h/mL
AUC(0-t) [1, 9]: 22500 ng·h/mL
AUC(0-t) [1, 10]: 23900 ng·h/mL
AUC(0-t) [1, 11]: 17500 ng·h/mL
AUC(0-t) [1, 12]: 13100 ng·h/mL
AUC(0-t) [1, 13]: 11600 ng·h/mL
AUC(0-t) [1, 14]: 24100 ng·h/mL
AUC(0-t) [1, 15]: 42200 ng·h/mL
AUC(0-t) [1, 16]: 25500 ng·h/mL
AUC(0-t) [1, 17]: 16200 ng·h/mL
AUC(0-t) [1, 3]: 8580 ng·h/mL
AUC(0-t) [1, 4]: 18400 ng·h/mL
AUC(0-t) [1, 5]: 42200 ng·h/mL
AUC(0-t) [1, 6]: 17800 ng·h/mL
AUC(0-t) [1, 7]: 17700 ng·h/mL
Cmax [1, 8]: 550 ng/mL
Cmax [1, 9]: 657 ng/mL
Cmax [1, 10]: 692 ng/mL
Cmax [1, 11]: 583 ng/mL
Cmax [1, 13]: 604 ng/mL
Cmax [1, 14]: 694 ng/mL
Cmax [1, 15]: 827 ng/mL
Cmax [1, 16]: 658 ng/mL
Cmax [1, 17]: 685 ng/mL
Cmax [1, 3]: 590 ng/mL
Cmax [1, 4]: 762 ng/mL
Cmax [1, 5]: 827 ng/mL
Cmax [1, 6]: 471 ng/mL
Cmax [1, 7]: 665 ng/mL
Vd/F [1, 8]: 2320 L
Vd/F [1, 9]: 1460 L
Vd/F [1, 10]: 1530 L
Vd/F [1, 11]: 1960 L
Vd/F [1, 12]: 1650 L
Vd/F [1, 13]: 3340 L
Vd/F [1, 14]: 1660 L
Vd/F [1, 15]: 2700 L
Vd/F [1, 16]: 2840 L
Vd/F [1, 17]: 2220 L
Vd/F [1, 3]: 2130 L
Vd/F [1, 4]: 1280 L
Vd/F [1, 5]: 2700 L
Vd/F [1, 6]: 2190 L
Vd/F [1, 7]: 1270 L
half-life ([1]; t1/2, GM, Child–Pugh mild hepatic impairment): 25.2 h
half-life ([1]; t1/2, GM, Child–Pugh moderate hepatic impairment): 42.6 h
half-life ([1]; t1/2, GM, Child–Pugh severe hepatic impairment): 47.8 h
half-life ([1]; t1/2, GM, NCI-ODWG moderate hepatic impairment): 45 h
half-life ([1]; t1/2, GM, NCI-ODWG normal hepatic function): 26.1 h
half-life ([1]; t1/2, Mean (SD), Child–Pugh mild hepatic impairment): 27.5 h
half-life ([1]; t1/2, Mean (SD), Child–Pugh moderate hepatic impairment): 44.8 h
half-life ([1]; t1/2, Mean (SD), Child–Pugh severe hepatic impairment): 47.8 h
half-life ([1]; t1/2, Mean (SD), NCI-ODWG moderate hepatic impairment): 46.7 h
half-life ([1]; t1/2, Mean (SD), NCI-ODWG normal hepatic function): 28.5 h
half-life ([1]; t1/2, Median (min–max), Child–Pugh mild hepatic impairment): 26.6 h
half-life ([1]; t1/2, Median (min–max), Child–Pugh moderate hepatic impairment): 49.9 h
half-life ([1]; t1/2, Median (min–max), Child–Pugh severe hepatic impairment): 47.8 h
half-life ([1]; t1/2, Median (min–max), NCI-ODWG moderate hepatic impairment): 49.3 h
half-life ([1]; t1/2, Median (min–max), NCI-ODWG normal hepatic function): 26.3 h
Tmax [1, 3]: 3.98 h
Tmax [1, 4]: 3.95 h
Tmax [1, 5]: 4.49 h
Tmax [1, 6]: 3.96 h
Tmax [1, 7]: 3.97 h
Slope estimate (90% CI), AUC0-inf vs AST [1, 18]: 0.001 (–0.002 to 0.004)
Slope estimate (90% CI), AUC0-inf vs Bilirubin [1, 18]: 0.003 (–0.014 to 0.020)
Slope estimate (90% CI), AUC0-last vs AST [1, 18]: 0.001 (–0.002 to 0.004)
Slope estimate (90% CI), AUC0-last vs Bilirubin [1, 18]: 0.002 (–0.015 to 0.019)
Slope estimate (90% CI), Cmax vs AST [1, 18]: 0 (–0.002 to 0.001)
Slope estimate (90% CI), Cmax vs Bilirubin [1, 18]: –0.002 (–0.011 to 0.007)
maximum tolerated dose [2]: > 840 mg BID
